Measurements from paper PMC9688344, “[^225Ac]Ac-SibuDAB for Targeted Alpha Therapy of Prostate Cancer: Preclinical Evaluation and Comparison with [^225Ac]Ac-PSMA-617” (Cancers, 2022).
Like-named read-outs stand apart in the source and are kept apart here.

How the values were obtained:
[1] = test system: PSMA-positive PC-3 PIP tumor xenografts; test: Therapy study in PC-3 PIP tumor-bearing mice; format: in vivo, BALB/c nude mice; conditions: 10 MBq
Description: Five days after subcutaneous inoculation of four groups of mice with either PC-3 PIP or PC-3 flu tumor cells on the right shoulder (4 × 10^6 cells in 100 μL HBSS), the mice were intravenously injected with either vehicle only (saline with 0.05% BSA, n = 6 and n = 4, respectively) or with 30 kBq [^225Ac]Ac-SibuDAB (1 nmol per mouse; n = 4 per group) diluted in vehicle (Table 1).
After tumor cell inoculation, mice bearing PC-3 PIP tumor xenografts were intravenously injected with vehicle only (n = 6) or with [^225Ac]Ac-SibuDAB or [^225Ac]Ac-PSMA-617, respectively, applied at 5 kBq or 10 kBq (1 nmol per mouse; n = 6 per group; Table 1). The control group consisted of mice from several studies (n = 12 mice) and the data from this group were published previously.
After administration of the radioligands, the mice were monitored over 8 weeks using the same measures as previously published by Umbricht et al.. The relative body mass was defined as [BMx/BM0], where BMx is the body mass in grams at a given Day x and BM0 is the body mass in grams at Day 0. The tumor dimension was determined by measuring the longest tumor axis (L) and its perpendicular axis (W) with a digital caliper. The tumor volume (V) was calculated according to the equation [V = 0.5 × (LW^2)]. The relative tumor volume was defined as [TVx/TV0], where TVx is the tumor volume in mm^3 at a given Day x, and TV0 is the tumor volume in mm^3 at Day 0. Endpoint criteria that required euthanasia were defined as (i) body mass loss of >15%, (ii) a tumor volume of >800 mm^3, (iii) a combination of body mass loss of >10% and a tumor volume of >700 mm^3 or, (iv) signs of unease and pain or a combination thereof using a scoring system as previously reported. The median survival of mice of each group was assessed with Kaplan–Meier curves. Potential early side effects for mice that survived until study end were determined based on blood chemistry and organ-to-brain mass ratios on Day 56 by comparison to values obtained from an additional group of therapy-naïve mice (n = 4) without tumors but of the same age (Supplementary Material: Section S9).
Table S10. Biodistribution data and tumor-to-background ratios obtained in PC3-PIP/flu tumor-bearing mice 48 h after injection of [225Ac]Ac-SibuDAB, [177Lu]Lu-SibuDAB, [225Ac]Ac-PSMA-617 or [177Lu]Lu-PSMA-617. Decay-corrected data of accumulated activity are shown as [% IA/g]-values, representing the average ± SD.
Biodistribution data at 48 h p.i.
1 Data of [177Lu]Lu-PSMA-617 were previously published by Benešová et al., Mol Pharm 2018 [2]; Copyright 2018, American Chemical Society.
Purpose: In order to determine the therapeutic efficacy of [225Ac]Ac-SibuDAB in com-parison to [225Ac]Ac-PSMA-617 as well as the 177Lu-labeled counterparts, therapy studies were conducted in PC-3 PIP xenograft-bearing BALB/c nude mice.
Methods: The methods of the therapy study to assess the therapeutic efficacy of [225Ac]Ac-SibuDAB are reported in the main manuscript. An additional group of mice was treated with 10 MBq (1 nmol) [177Lu]Lu-SibuDAB under the same experimental condi-tions. Data previously acquired by our group for mice treated with 5 MBq [177Lu]Lu-SibuDAB were published by Borgna & Deberle et al. and data of mice treated with 5 MBq or 10 MBq [177Lu]Lu-PSMA-617 were previously published by Tschan et al. and Umbricht et al., respectively.
Results: The assessment of the PSMA-specific therapeutic effect of [225Ac]Ac-SibuDAB as well as the comparison to [225Ac]Ac-PSMA-617 are described in the main ar-ticle. The body mass of effectively treated mice, in which the tumor disappeared entirely […]
tumor-bearing mice that were treated with only vehicle as well as for some mice that were treated with 5 kBq or 10 kBq [225Ac]Ac-PSMA-617 and experienced a relapse in tumor

PSMA = molecular target: T1, PSMA (Homo sapiens, UniProt Q04609); conditions: ref Borgna & Deberle et al., Mol Pharm 2022; cited from earlier work
T1 construct: expressed in transfected cells; host or cells: PC-3 PIP prostate cancer cells (transduced to express PSMA), provided by Prof; Dr. Martin Pomper, Johns Hopkins University

[2] = test system: PSMA-positive PC-3 PIP cells; conditions: 4 h incubation; ref Borgna & Deberle et al., Mol Pharm 2022; cited from earlier work
[3] = cited from earlier work
[4] = test system: PC3-PIP/flu tumor-bearing mice; test: Biodistribution studies; format: in vivo, BALB/c nude mice; conditions: 48 h p.i.
[5] = test system: PSMA-positive PC-3 PIP tumor xenografts; design: method as in Borgna & Deberle et al., Mol Pharm 2022; conditions: 5 MBq, ref Borgna & Deberle et al., Mol Pharm 2022; cited from earlier work
[6] = test system: PC3-PIP/flu tumor-bearing mice; conditions: ref Borgna & Deberle et al., Mol Pharm 2022, cited from earlier work

T1 sequence (Q04609 whole entry): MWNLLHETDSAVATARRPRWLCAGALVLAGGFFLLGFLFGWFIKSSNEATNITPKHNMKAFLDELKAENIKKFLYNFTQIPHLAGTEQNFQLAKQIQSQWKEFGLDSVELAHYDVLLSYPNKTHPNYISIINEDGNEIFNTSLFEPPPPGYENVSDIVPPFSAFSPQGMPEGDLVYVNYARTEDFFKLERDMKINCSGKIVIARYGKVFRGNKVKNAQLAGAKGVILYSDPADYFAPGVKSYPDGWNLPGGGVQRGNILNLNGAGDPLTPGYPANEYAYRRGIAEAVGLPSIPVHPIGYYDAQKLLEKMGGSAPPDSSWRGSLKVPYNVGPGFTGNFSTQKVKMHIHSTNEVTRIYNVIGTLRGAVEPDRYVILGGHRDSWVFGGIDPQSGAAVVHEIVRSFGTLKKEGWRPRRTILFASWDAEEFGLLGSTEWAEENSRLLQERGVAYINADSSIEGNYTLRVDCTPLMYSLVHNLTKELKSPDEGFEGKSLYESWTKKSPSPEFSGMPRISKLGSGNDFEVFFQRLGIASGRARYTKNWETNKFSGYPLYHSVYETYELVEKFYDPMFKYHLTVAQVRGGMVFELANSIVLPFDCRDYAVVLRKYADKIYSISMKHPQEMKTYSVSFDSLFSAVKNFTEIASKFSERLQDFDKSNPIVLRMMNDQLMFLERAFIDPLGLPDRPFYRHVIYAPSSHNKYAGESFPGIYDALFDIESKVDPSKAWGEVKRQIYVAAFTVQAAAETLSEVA

CC(C)Cc1ccc(C(C)C(=O)NC(CCN)C(=O)NCCCCC(NC(=O)CN2CCN(CC(=O)[O-])CCN(CC(=O)[O-])CCN(CC(=O)[O-])CC2)C(=O)NCC2CCC(C(=O)NC(Cc3ccc4ccccc4c3)C(=O)NCCCCC(NC(=O)NC(CCC(=O)O)C(=O)O)C(=O)O)CC2)cc1.[177Lu+3] (stereo not shown) [[^177Lu]Lu-SibuDAB]
mice whose tumor xenografts disappeared completely without relapse until Day 56 [1]: five out of six
start of tumor regrowth in the other mice [1]: ~ 7 weeks
mice whose tumor xenografts disappeared completely without relapse until Day 56 ([1]; listed as [177Lu]Lu-SibuDAB): five out
Kd (PSMA): 27 nM
Cell uptake [2]: 53 ± 1%
Internalized fraction [2]: 15 ± 2%
logD value [3]: −2.3 ± 0.1
Blood, accumulated activity [4]: 0.27 ± 0.04 % IA/g
Bone, accumulated activity [4]: ≤ 0.10 % IA/g
Heart, accumulated activity [4]: 0.14 ± 0.02 % IA/g
Intestines, accumulated activity [4]: 0.10 ± 0.03 % IA/g
Kidneys, accumulated activity [4]: 3.5 ± 0.7 % IA/g
Liver, accumulated activity [4]: 0.44 ± 0.06 % IA/g
Lung, accumulated activity [4]: 0.33 ± 0.07 % IA/g
Muscle, accumulated activity [4]: 0.07 ± 0.02 % IA/g
PC-3 PIP tumor, accumulated activity [4]: 69 ± 12 % IA/g
PC-3 flu tumor, accumulated activity [4]: 0.30 ± 0.07 % IA/g
Salivary glands, accumulated activity [4]: 0.18 ± 0.05 % IA/g
Spleen, accumulated activity [4]: 0.43 ± 0.10 % IA/g
Stomach, accumulated activity [4]: 0.12 ± 0.06 % IA/g
Tumor-to-blood ratio [4]: 252 ± 24
Tumor-to-kidney ratio [4]: 20 ± 2
Tumor-to-liver ratio [4]: 157 ± 14
mice whose tumor xenografts disappeared completely without relapse until Day 56 [5]: two out of six
start of tumor regrowth in the other mice [5]: ~ 4 weeks
Blood, accumulated activity ([6]; 1 h p.i.): 17 ± 2 % IA/g
Bone, accumulated activity ([6]; 1 h p.i.): 2.1 ± 0.3 % IA/g
Heart, accumulated activity ([6]; 1 h p.i.): 5.3 ± 0.8 % IA/g
Intestines, accumulated activity ([6]; 1 h p.i.): 1.8 ± 0.3 % IA/g
Kidneys, accumulated activity ([6]; 1 h p.i.): 22 ± 5 % IA/g
Liver, accumulated activity ([6]; 1 h p.i.): 3.5 ± 0.6 % IA/g
Lung, accumulated activity ([6]; 1 h p.i.): 12 ± 2 % IA/g
Muscle, accumulated activity ([6]; 1 h p.i.): 1.9 ± 0.3 % IA/g
PC-3 PIP tumor, accumulated activity ([6]; 1 h p.i.): 38 ± 7 % IA/g
PC-3 flu tumor, accumulated activity ([6]; 1 h p.i.): 2.7 ± 0.4 % IA/g
Salivary glands, accumulated activity ([6]; 1 h p.i.): 3.5 ± 0.4 % IA/g
Spleen, accumulated activity ([6]; 1 h p.i.): 3.0 ± 0.4 % IA/g
Stomach, accumulated activity ([6]; 1 h p.i.): 1.5 ± 0.4 % IA/g
Tumor-to-blood ratio ([6]; 1 h p.i.): 2.3 ± 0.5
Tumor-to-kidney ratio ([6]; 1 h p.i.): 1.7 ± 0.3
Tumor-to-liver ratio ([6]; 1 h p.i.): 11 ± 2
Blood, accumulated activity ([6]; 4 h p.i.): 2.9 ± 1.9 % IA/g
Bone, accumulated activity ([6]; 4 h p.i.): 0.49 ± 0.27 % IA/g
Heart, accumulated activity ([6]; 4 h p.i.): 1.1 ± 0.7 % IA/g
Intestines, accumulated activity ([6]; 4 h p.i.): 0.46 ± 0.23 % IA/g
Kidneys, accumulated activity ([6]; 4 h p.i.): 12 ± 3 % IA/g
Liver, accumulated activity ([6]; 4 h p.i.): 1.3 ± 0.5 % IA/g
Lung, accumulated activity ([6]; 4 h p.i.): 3.1 ± 2.8 % IA/g
Muscle, accumulated activity ([6]; 4 h p.i.): 0.39 ± 0.22 % IA/g
PC-3 PIP tumor, accumulated activity ([6]; 4 h p.i.): 66 ± 11 % IA/g
PC-3 flu tumor, accumulated activity ([6]; 4 h p.i.): 0.95 ± 0.71 % IA/g
Salivary glands, accumulated activity ([6]; 4 h p.i.): 0.82 ± 0.43 % IA/g
Spleen, accumulated activity ([6]; 4 h p.i.): 1.1 ± 0.6 % IA/g
Stomach, accumulated activity ([6]; 4 h p.i.): 0.49 ± 0.29 % IA/g
Tumor-to-blood ratio ([6]; 4 h p.i.): 49 ± 51
Tumor-to-kidney ratio ([6]; 4 h p.i.): 5.5 ± 1.5
Tumor-to-liver ratio ([6]; 4 h p.i.): 61 ± 29
Blood, accumulated activity ([6]; 24 h p.i.): 0.26 ± 0.08 % IA/g
Bone, accumulated activity ([6]; 24 h p.i.): 0.11 ± 0.04 % IA/g
Heart, accumulated activity ([6]; 24 h p.i.): 0.15 ± 0.05 % IA/g
Intestines, accumulated activity ([6]; 24 h p.i.): 0.13 ± 0.06 % IA/g
Kidneys, accumulated activity ([6]; 24 h p.i.): 4.3 ± 1.0 % IA/g
Liver, accumulated activity ([6]; 24 h p.i.): 0.54 ± 0.18 % IA/g
Lung, accumulated activity ([6]; 24 h p.i.): 0.31 ± 0.10 % IA/g
Muscle, accumulated activity ([6]; 24 h p.i.): ≤ 0.10 % IA/g
PC-3 PIP tumor, accumulated activity ([6]; 24 h p.i.): 62 ± 18 % IA/g
PC-3 flu tumor, accumulated activity ([6]; 24 h p.i.): 0.38 ± 0.09 % IA/g
Salivary glands, accumulated activity ([6]; 24 h p.i.): 0.18 ± 0.05 % IA/g
Spleen, accumulated activity ([6]; 24 h p.i.): 0.40 ± 0.13 % IA/g
Stomach, accumulated activity ([6]; 24 h p.i.): 0.12 ± 0.06 % IA/g
Tumor-to-blood ratio ([6]; 24 h p.i.): 247 ± 34
Tumor-to-kidney ratio ([6]; 24 h p.i.): 14 ± 1
Tumor-to-liver ratio ([6]; 24 h p.i.): 117 ± 14
